Measurements published in publication PMC4020581 (Biochemistry, 2014).

Molecular target: T1, FtsZ (Bacillus subtilis, UniProt P17865)
T1 sequence (P17865 1-382): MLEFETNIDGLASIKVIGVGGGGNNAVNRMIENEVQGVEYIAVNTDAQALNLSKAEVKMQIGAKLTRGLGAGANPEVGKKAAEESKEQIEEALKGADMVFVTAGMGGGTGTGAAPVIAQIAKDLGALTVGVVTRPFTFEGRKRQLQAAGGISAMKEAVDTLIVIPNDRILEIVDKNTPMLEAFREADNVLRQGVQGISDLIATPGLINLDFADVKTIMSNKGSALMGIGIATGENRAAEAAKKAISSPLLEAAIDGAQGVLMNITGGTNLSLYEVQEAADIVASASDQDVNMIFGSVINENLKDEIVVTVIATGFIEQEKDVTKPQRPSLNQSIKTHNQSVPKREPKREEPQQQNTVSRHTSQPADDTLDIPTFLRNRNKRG
Experiment: malachite green/ammonium molybdate GTPase assay
Type: biochemical

malachite green/ammonium molybdate GTPase assay (1 mM GTP): 1.5 ± 0.6 min^–1
SMILES: Nc1nc2c(ncn2[C@@H]2O[C@H](COP(=O)(O)OP(=O)(O)OP(=O)(O)O)[C@@H](O)[C@H]2O)c(=O)[nH]1 [GTP]
